Test results published in patent US7897633B2, “Inhibitors of glutaminyl cyclase” (Probiodrug AG, priority 2004, dated 2011).

What was measured:
[1] = target: glutaminyl cyclase (QC) (Homo sapiens, UniProt Q16769); assay: Inhibitor assay for glutaminyl cyclase (QC) activity; conditions: for Res. Act. (%): rapid test of QC-inhibition: 4 mM inhibitor, substrate concentration at 1 KM
glutaminyl cyclase (QC), sequence (Q16769 29-361): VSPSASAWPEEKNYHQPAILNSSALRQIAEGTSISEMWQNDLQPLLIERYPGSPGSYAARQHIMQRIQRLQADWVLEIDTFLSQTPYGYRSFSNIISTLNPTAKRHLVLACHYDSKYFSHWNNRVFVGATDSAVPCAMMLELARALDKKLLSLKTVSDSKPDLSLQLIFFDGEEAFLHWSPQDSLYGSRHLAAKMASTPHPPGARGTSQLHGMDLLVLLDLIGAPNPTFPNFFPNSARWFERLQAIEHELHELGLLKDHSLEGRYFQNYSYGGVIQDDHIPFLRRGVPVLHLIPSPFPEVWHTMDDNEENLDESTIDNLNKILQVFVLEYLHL
Protocol: Excitation/emission wavelengths were 320/410 nm. The assay reactions were initiated by addition of glutaminyl cyclase.
Reactions were carried out at 30° C. utilizing the NOVOStar reader for microplates (BMG labtechnologies). […] Excitation/emission wavelengths were 380/460 nm. The assay reactions were initiated by addition of glutaminyl cyclase. […] The kinetic data were evaluated using GraFit software.
The initial velocities were evaluated and the enzymatic activity was determined from a standard curve of ammonia under assay conditions. All samples were measured at 30° C., using either the [sequence]luor Plus or the Sunrise (both from TECAN) reader for microplates. Kinetic data was evaluated using GraFit software.
For inhibitor testing, the sample composition was the same as described above, except of the putative inhibitory compound added. […] For detailed investigations of the inhibition and determination of Ki-values, influence of the inhibitor on the auxiliary enzymes was investigated first.

Row | SMILES | melting point [°C] | Ki [1] [µM] | Res. Act. (%) [1] [%] | further results
1 | CNC(=S)NCCCn1ccnc1 | 122 to 122.5 |  |  | 
2 | COc1ccc(NC(=S)NC[C@H](C)Cn2ccnc2)cc1OC | 150.5 to 151.5 |  |  | 
3 | COc1ccc(NC(=S)NC[C@@H](C)Cn2ccnc2)cc1OC | 155 to 157.5 |  |  | 
4 | COc1ccc(NC(=S)NCC2(Cn3ccnc3)CC2)cc1OC | 166.5 to 168.5 |  |  | 
5 | C[C@@H](C(=S)NCCCn1ccnc1)c1ccccc1 | 82 to 82.5 |  |  | 
6 | C[C@H](C(=S)NCCCn1ccnc1)c1ccccc1 | 82.5 to 83.5 |  |  | 
7 | COc1ccc(CC(=S)NCCCn2ccnc2)cc1OC | 148 to 150 |  |  | 
8 | S=C(NCCCn1ccnc1)C1(c2ccc(Cl)cc2)CCC1 | 137.5 to 139 |  |  | 
9 | S=C(NCCCn1ccnc1)C1(c2ccc(Cl)cc2)CCCC1 | 140 to 141 |  |  | 
10 | COc1ccc(C2(C(=S)NCCCn3ccnc3)CCCCC2)cc1 | 162.5 to 164 |  |  | 
11 | COc1ccc(C2(C(=S)NCCCn3ccnc3)CC2)cc1 | 129 to 129.5 |  |  | 
12 | COc1ccc(NC(=S)CCCCn2ccnc2)cc1OC | 128 to 128.5 |  |  | 
13 | COc1ccc(NC(=S)NCCn2ccnc2)cc1OC | 157.5 to 159 |  |  | 
14 | COc1ccc(NC(=S)NCCCCn2ccnc2)cc1OC | 114.5 to 116 |  |  | 
15 | COc1ccc(NC(=S)NCCCn2ccnc2)c(OC)c1 | 120 to 120.5 |  |  | 
16 | COc1cc(NC(=S)NCCCn2ccnc2)cc(OC)c1 | 142 to 143 |  |  | 
17 | CC(C)(C)NC(=S)NCCCn1ccnc1 | 147 to 147.5 |  |  | 
18 | S=C(NCCCn1ccnc1)Nc1ccc2c(c1)OCCO2 | 103 to 103.5 |  |  | 
19 | S=C(NCCCn1ccnc1)Nc1ccc2c(c1)OCO2 | 115 to 115.6 |  |  | 
20 | COc1cc(NC(=S)NCCCn2ccnc2)cc(OC)c1OC | 124.5 to 125.5 |  |  | 

Row | SMILES | melting point [°C] | Ki [1] [µM] | Res. Act. (%) [1] [%] | further results
21 | COc1cccc(NC(=S)NCCCn2ccnc2)c1 | 89.5 to 90 |  |  | 
22 | S=C(NCCCn1ccnc1)NCc1ccccc1 | 127 to 128 |  |  | 
23 | CN(C)c1ccc(NC(=S)NCCCn2ccnc2)cc1 | 146.5 to 147 |  |  | 
24 | CCc1ccc(NC(=S)NCCCn2ccnc2)cc1 | 100 to 100.5 |  |  | 
25 | FC(F)(F)c1ccc(NC(=S)NCCCn2ccnc2)cc1 [Example 8, 1-(3-(1H-imidazol-1-yl)propyl)-3-(4-(trifluoromethyl)phenyl)thiourea] | 154.5 to 155 | 3.93 | 38.5 | 
26 | COC(=O)c1ccc(NC(=S)NCCCn2ccnc2)cc1 [Example 9] |  | 1.19 |  | 
27 | CC(=O)c1ccc(NC(=S)NCCCn2ccnc2)cc1 [Example 10, 1-(3-(1H-imidazol-1-yl)propyl)-3-(4-acetylphenyl)thiourea] | 170 to 171 | 1.7 | 17.0 | 
28 | COc1ccc(NC(=S)NCCCn2ccnc2)cc1 [Example 11, 1-(3-(1H-imidazol-1-yl)propyl)-3-(4-methoxyphenyl)thiourea] |  |  | 9.7 | 
29 | S=C(NCCCn1ccnc1)Nc1ccc(-c2cnco2)cc1 [Example 17] |  | 0.86 | 3.64 | 
30 | O=S(=O)(c1ccc(NC(=S)NCCCn2ccnc2)cc1)N1CCCCC1 [Example 20] |  | 2.27 | 8.5 | 
31 | N#Cc1ccc(NC(=S)NCCCn2ccnc2)cc1 [Example 22] |  | 2.89 | 9.0 | 
32 | CCOc1ccc(NC(=S)NCCCn2ccnc2)cc1 [Example 27, 1-(3-(1H-imidazol-1-yl)propyl)-3-(4-ethoxyphenyl)thiourea] |  |  | 7.2 | 
33 | COc1ccc(CNC(=S)NCCCn2ccnc2)cc1 [Example 29] |  | 3.93 |  | 
34 | CSc1ccc(NC(=S)NCCCn2ccnc2)cc1 [Example 33, 1-(3-(1H-imidazol-1-yl)propyl)-3-(4-(methylthio)phenyl)thiourea] | 140 to 140.5 |  |  | 
35 | S=C(NCCCn1ccnc1)Nc1ccc(I)cc1 [Example 38] |  | 2.12 | 23.5 | 
36 | S=C(NCCCn1ccnc1)Nc1ccc(Br)cc1 [Example 39] |  | 2.52 |  | 
37 | CCCCNC(=S)NCCCn1ccnc1 [Example 43] |  |  | 53.8 | IC50 [1]: 14 µM
38 | S=C(NCCCn1ccnc1)NC1CCCCCCC1 [Example 44] |  |  | 33.1 | IC50 [1]: 9.1 µM
39 | S=C(NCCCn1ccnc1)NCc1ccco1 [Example 45] |  |  | 61.4 | IC50 [1]: 10 µM
40 | S=C(NCCCn1ccnc1)NCC1CCCO1 (centres unmarked) [Example 46] |  |  | 46.0 | IC50 [1]: 12.8 µM

Row | SMILES | melting point [°C] | Ki [1] [µM] | Res. Act. (%) [1] [%] | further results
41 | S=C(NCCCn1ccnc1)NCc1ccc2c(c1)OCO2 [Example 47] |  |  | 42.7 | 
42 | S=C(NCCCn1ccnc1)NCCN1CCOCC1 [Example 48] |  |  | 55.0 | IC50 [1]: 13.3 µM
43 | COc1cc(NC(=NC#N)NCCCn2ccnc2)cc(OC)c1 [Example 57] |  | 0.91 |  | 
44 | N#CN=C(NCCCn1ccnc1)Nc1ccc2c(c1)OCO2 [Example 59] |  | 0.73 |  | 
45 | COc1cc(NC(=NC#N)NCCCn2ccnc2)cc(OC)c1OC [Example 60] |  | 0.88 |  | 
46 | N#CN=C(NCCCn1ccnc1)NCc1ccccc1 [Example 68] |  | 8.17 | 22.5 | 
47 | Cc1ccc(NC(=NC#N)NCCCn2ccnc2)cc1 [Example 75] |  | 1.34 |  | 
48 | COc1ccc(NC(=N)NCCCn2ccnc2)cc1OC [Example 92] |  | 204 |  | 
49 | CN=C(NCCCn1ccnc1)Nc1ccc(OC)c(OC)c1 [Example 93] |  | 3.62 |  | 
50 | CCNC(=O)NCCCn1ccnc1 [Example 96] |  | 19.2 |  | 
51 | O=C(NCCCn1ccnc1)Nc1cc(F)cc2c1OCOC2 [Example 97] |  |  | 19.0 | IC50 [1]: 12 µM
52 | COc1ccc(NC(=O)NCCCn2ccnc2)cc1OC1CCCC1 [Example 98] |  | 0.62 | 2.87 | 
53 | CCCCCCCOc1ccc(NC(=O)NCCCn2ccnc2)cc1 [Example 99] |  |  | 5.6 | IC50 [1]: 9.9 µM
54 | COc1ccc(NC(=S)NCc2ccccc2Cn2ccnc2)cc1OC [Example 103] |  | 4.84 | 16.27 | 
55 | COc1ccc(NC(=S)NCc2cccc(Cn3ccnc3)c2)cc1OC [Example 104] |  | 3.52 |  | 
56 | COc1ccc(NC(=S)NCc2ccc(Cn3ccnc3)cc2)cc1OC [Example 105] |  | 1.86 |  | 
57 | S=C(Cc1ccccc1)NCCCn1ccnc1 [Example 113] |  | 4.62 |  | 
58 | S=C(Cc1cccs1)NCCCn1ccnc1 [Example 114] |  | 3.29 |  | 
59 | CCC(C(=S)NCCCn1ccnc1)c1ccccc1 (centres unmarked) [Example 117] |  | 3.57 |  | 
